“And” between values parts separate entries of the source, which are not always exact repeats. Equal entries are not always repeated. Marks after values point to notes of the source that are not given here.
Assays:
[1] = tested on: K. pneumoniae AcrB^V448E RamR^mut; experiment: MIC of antibiotics with and without EPI (REMA), double mutant; assay type: cell-based, Klebsiella pneumoniae; details: K. pneumoniae AcrB^V448E RamR^mut
Description: MIC experiments were carried out according to the CLSI guidelines (CLSI [2023]). Overnight cultures were diluted to an OD600 = 0.001 in CAMHB followed by addition of efflux pump inhibitors (EPIs) at a final concentration of 100 µM. […] Plates were incubated at 37 °C for up to 20 h. Bacterial viability was evaluated using the resazurin microtitre assay (REMA) and measured by fluorescence using a Tecan Spaert multimode plate reader (Ex: 530 nm Em: 590 nm). MICs were defined as the concentration that prevented 90% of resazurin turnover compared to the non-treated bacteria.

K. pneumoniae ATCC 43816 = experiment: K. pneumoniae mouse lung infection (lung CFU); assay type: in vivo, Klebsiella pneumoniae; details: for reduction in lung bacterial load compared to untreated mice: at 24 h
Text: Mice experiments complied with national, institutional and European regulations and ethical guidelines, were in accordance with ARRIVE guidelines 2.0 and were approved by the Institutional Animal Care and Use Committee (animal facility agreement D59-350009, Institut Pasteur de Lille, protocol reference: APAFIS#25953, 2020060916081461_v2). Six to eight weeks old female C57BL/6JRj mice were purchased from Janvier Laboratories (Saint Berthevin, France), allocated into experimental groups in a random fashion and maintained in individually ventilated cages (Innorack® IVC Mouse 3.5) and handled in a vertical laminar flow biosafety cabinet (Class II Biohazard, Tecniplast). All infections were performed in an animal biosafety level 2 facility.
Inoculum was prepared as follows. Tryptic Soy broth was inoculated with K. pneumoniae from a frozen stock and grown overnight at 37 °C without shaking. 1 mL of this overnight bacterial culture was transferred to a warm fresh Tryptic Soy broth and grown at 37 °C until it reached the mid-log. Cells were pelleted, washed with PBS and resuspended to the appropriate concentration.
22 h post-infection, mice were treated with BDM91288 (5) (30 mg/kg, 200 µL, formulated in 10% hydroxypropyl-beta-cyclodextrine (Kleptose HP; Roquette) at 3 mg/mL) by intragastric route. […] At 4 h or 24 h post antibiotic treatment, mice were euthanized by cervical dislocation. Lungs were collected in 1 mL of PBS, homogenized with a T-25 digital Ultraturrax® (IKA). CFU counts were determined by plating serial dilutions onto Tryptic Soy agar plate.

[2] = Plasma protein binding by equilibrium dialysis; assay type: in vitro ADME; details: pH 7.4, mouse plasma, read-out: plasma protein binding, Funbound
Description: In vitro plasma protein binding of BDM91288 (5) was measured in mouse plasma using equilibrium dialysis. The RED inserts were placed in a 48-well Teflon Plate (Pierce). Samples were prepared by mixing test compound with plasma at the appropriate concentration to reach a final drug concentration of 10 μM. Triplicate aliquots of plasma containing BDM91288 (5) at a concentration of 10 μM were pipetted to plasma side (red) of the insert and PBS pH 7.4 was placed into the receiver side (white) of the insert. The plate was covered with sealing tape and incubated in a 37 °C orbital shaker water bath for 4 h. Following incubation, samples were prepared in a mixed matrix configuration. Aliquots of samples were pipetted into 96-well plates and precipitation buffer was added to precipitate the proteins. Samples were mixed by vortexing, then centrifuged for 10 min at 12,000 rpm at 4 °C. The supernatant was assayed directly by LC-MS/MS. The following equation was used to calculate the percentage of bound drug fraction (% PPB) using this equilibrium dialysis method: % unbound = ([Buffer chamber]/[Plasma chamber) × 100.

in vitro = assay type: cell-based; details: mouse, BALB/3T3 cells, read-out: in vitro cytotoxicity CC50
Description: BALB/3T3 cells (CCL-163 from ATCC) were not authenticated. The cell lines were tested negative for mycoplasma contamination (kit mycoalert LONZA). The cytotoxicity of compound BDM91288 (5) was determined on BALB/3T3 cells using live imaging following both Hoechst 33342 and propidium iodide staining. Propidium iodide is a not membrane-permeable DNA stain, allowing to differentiate necroptic, apoptotic and healthy cells based on loss of membrane integrity. […] Final medium volume was 70 µL. 24 h after compounds addition, live imaging was performed using the automated confocal microscope In Cell Analyzer 6000 (GE Healthcare). The cytotoxicity was defined as the percent of cells labelled by propidium iodide in the total cell population (Hoechst labelled cells) using Columbus software (Perkin Elmer). Compounds were tested in triplicate. Carfilzomib (499, 249, […], 61, and 30.6 nM) was used as a positive control in this assay.

[3] = Pharmacokinetics in mice in combination with levofloxacin (plasma, lung after BAL, ELF); assay type: in vivo, female CD-1 mice; details: female, CD-1, mouse, ELF and plasma, oral; higher than plasma; read-out: ELF exposure (AUC) relative to that measured in the plasma
Description: The concentration of compounds in plasma, lungs and ELF was measured after 2 h, 6 h and 24 h. […] After rodent sacrifice by cervical dislocation, bronchoalveolar lavage (BAL) fluid was collected using a cannula inserted into the trachea. 1 mL of PBS was introduced in lungs via the cannula and the collected BAL fluid was centrifuged (5 min, 3500 rpm, 4 °C). Supernatants were removed, their volume recorded, and samples stored at −80 °C until analysis.
Plasma and BAL fluid samples were thawed on ice.
The concentration of compound in ELF, [cpd]ELF, was calculated as follows: cpdELF=cpdBALxVBAL/VELF where [cpd]BAL is the measured concentration of compound in BAL fluid supernatant, VBAL and VELF, the volume of aspired BAL and the calculated volume of ELF, respectively.
The volume of ELF was calculated as follows: VELF=VBALxUreaBAL/UreaPlasma where VELF represents the apparent volume of ELF, VBAL is the volume of aspired BAL, and [Urea]BAL and [Urea]Plasma are concentration of urea in BAL fluid or plasma, respectively.
Concentrations of urea in plasma and in BAL fluid supernatant was measured using the UREA Nitrogen (BUN) colorimetric detection kit, according to the supplier procedural guidelines (Invitrogen).

| SMILES | Minimum Inhibitory Concentration ([1]; + 100 µM 1') | Minimum Inhibitory Concentration ([1]; + 100 µM 5) | Minimum Inhibitory Concentration ([1]; + 100 µM PAβN) | Minimum Inhibitory Concentration ([1]; No EPI) | CFU counts, lung, single animals (K. pneumoniae ATCC 43816; 4h post-treatment, levofloxacin 10mg/kg) | CFU counts, lung, single animals (K. pneumoniae ATCC 43816; 4h post-treatment, levofloxacin 50mg/kg) | CFU counts, lung, single animals (K. pneumoniae ATCC 43816; 24h post-treatment, levofloxacin 10mg/kg) | CFU counts, lung, single animals (K. pneumoniae ATCC 43816; 24h post-treatment, levofloxacin 50mg/kg) | reduction in lung bacterial load compared to untreated mice (K. pneumoniae ATCC 43816; single dose 10 mg/kg i.p.) | reduction in lung bacterial load compared to untreated mice (K. pneumoniae ATCC 43816; single dose 50 mg/kg i.p.) | fraction unbound at 4 h, 10 μM [2] | CC50 at 24 h (in vitro) | Kp [3] | CFU counts, lung, single animals (K. pneumoniae ATCC 43816; 4h post-treatment, BDM91288 + levofloxacin 10mg/kg) | CFU counts, lung, single animals (K. pneumoniae ATCC 43816; 4h post-treatment, BDM91288 alone) | CFU counts, lung, single animals (K. pneumoniae ATCC 43816; 24h post-treatment, BDM91288 + levofloxacin 10mg/kg) | CFU counts, lung, single animals (K. pneumoniae ATCC 43816; 24h post-treatment, BDM91288 alone) | impact on the K. pneumoniae bacterial load in the lungs (K. pneumoniae ATCC 43816; single dose 30 mg/kg p.o., alone) |
| --- | --- | --- | --- | --- | --- | --- | --- | --- | --- | --- | --- | --- | --- | --- | --- | --- | --- | --- |
| C[C@H]1COc2c(N3CCN(C)CC3)c(F)cc3c(=O)c(C(=O)O)cn1c23 [Levofloxacin] | 1.28 mg/L | 1.28 mg/L | 0.05^# mg/L | 1.28 mg/L | 2830 CFU and 567 CFU and 1330 CFU and 3170 CFU and 3670 CFU and 1830 CFU and 4670 CFU and 7670 CFU and 717 CFU and 3330 CFU and 2170 CFU and 833 CFU and 2000 CFU and 500 CFU and 450 CFU and 150 CFU | 200 CFU and 50 CFU and 267 CFU and 16.7 CFU and 117 CFU and 350 CFU and 583 CFU and 450 CFU and 833 CFU and 1000 CFU and 133 CFU and 667 CFU and 1330 CFU and 1500 CFU and 1170 CFU and 367 CFU | 117 CFU and 83.3 CFU and 15300 CFU and 26700 CFU and 7500 CFU and 1000 CFU and 6330 CFU and 9170 CFU | 16.7 CFU and 167 CFU and 66.7 CFU and 50 CFU and 100 CFU and 83.3 CFU | 3.2 log | 5.9 log |  |  |  |  |  |  |  |  |
| Clc1cc2cc(N3CCNCC3)ccc2nc1N1CCNCC1 [compound 5] |  |  |  |  |  |  |  |  |  |  | 0.54 | 48 µM | 2.3 | 250 CFU and 1500 CFU and 667 CFU and 267 CFU and 483 CFU and 1830 CFU and 1670 CFU and 500 CFU and 1170 CFU and 517 CFU and 833 CFU and 383 CFU and 650 CFU and 550 CFU and 450 CFU and 2670 CFU and 3170 CFU and 1000 CFU and 583 CFU | 433000 CFU and 400000 CFU and 533000 CFU and 817000 CFU and 13800000 CFU and 2670000 CFU and 5170000 CFU and 2330000 CFU and 550000 CFU and 700000 CFU and 1830000 CFU and 250000 CFU and 1030000 CFU and 600000 CFU and 1120000 CFU and 317000 CFU and 1380000 CFU and 167000 CFU and 2500000 CFU and 450000 CFU and 267000 CFU and 567000 CFU | 16.7 CFU and 1500 CFU and 117 CFU and 200 CFU and 850 CFU and 517 CFU and 350 CFU and 683 CFU and 283 CFU | 98300 CFU and 4500000 CFU and 26700000 CFU and 31700000 CFU and 28300000 CFU and 1650000 CFU and 18300000 CFU and 13300000 CFU and 10000000 CFU and 12300000 CFU and 6170000 CFU and 7000000 CFU and 20000000 CFU and 483000 CFU and 16700000 CFU | no impact |

Reference: PMC10897476, “Pyridylpiperazine efflux pump inhibitor boosts in vivo antibiotic efficacy against K. pneumoniae” (EMBO Molecular Medicine, 2023)
